This note sets out measurements from PubChem BioAssay (NCI).

Among the test systems are SN12C renal; NCI/ADR-RES ovarian; SW-620 colon; SNB-75 CNS; HCT-15 colon; OVCAR-8 ovarian; RXF 393 renal; U251 CNS; HS 578T breast; NCI-H226 lung.
Assay in all cases: DTP human tumour cell line panel, 48 h

Values joined by “and” are separate entries in the source; they are usually repeats but may differ in a detail not shown here. Equal entries are not always repeated.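 1) Cells in 96-well plates. 2) Compound, 48 h, 5 concentrations. 3) Linear interpolation between surrounding doses. 4) Unreached endpoint = highest concentration. GI50 = concentration required for 50% inhibition of growth. TGI marks complete inhibition of growth.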

For orientation: TGI means the concentration giving total growth inhibition. Low values mean greater sensitivity of the cells, high ones lower sensitivity of the cells. For the compound `O=C1NC(c2cccc3ccccc23)Nc2ccc(Cl)cc21` (stereo unspecified), the TGI was 17.9 µM with SN12C renal; 0.0115 µM in the experiment with NCI/ADR-RES ovarian; 17.2 µM in the experiment with SW-620 colon; 0.000902 µM in the experiment with SNB-75 CNS; 0.269 µM with HCT-15 colon; 11.4 µM with OVCAR-8 ovarian. The TGI in the experiment on RXF 393 renal is 0.0261 µM; with U251 CNS, 0.022 µM and 0.0266 µM.
With `N#CC(Cl)CS(=O)(=O)c1ccccc1` (stereo unspecified), the TGI with SN12C renal came out at 31.7 µM; in the experiment with SW-620 colon it was 3.75 µM; in the experiment with SNB-75 CNS, 37.1 µM; in the experiment on HCT-15 colon it was 5.38 µM; in the experiment with OVCAR-8 ovarian it was 11.1 µM; in the experiment with RXF 393 renal, 6.31 µM. In addition, the concentration for total growth inhibition (TGI) in the experiment with HS 578T breast was more than 100 µM; in the experiment on U251 CNS it was 44.7 µM; in the experiment with NCI-H226 lung, 46.7 µM.
A word on the GI50: it is the concentration at which growth is held to half of that of the control. As to `COc1ccc(/C=C/C(=O)C(=O)/C=C/c2ccc(OC)c(OC)c2)cc1OC`, the GI50 in the experiment with SN12C renal is 3.06 µM; with NCI/ADR-RES ovarian, 4.2 µM; in the experiment with SW-620 colon, 1.08 µM; in the experiment on SNB-75 CNS, 2.49 µM; in the experiment on HCT-15 colon it was 0.769 µM; with OVCAR-8 ovarian, 2.97 µM. For the same compound, the figures for the GI50 in the experiment with RXF 393 renal, with HS 578T breast and in the experiment on U251 CNS were 1.46 µM, 2.71 µM and 1.53 µM, respectively. Further, the TGI in the experiment on SN12C renal is 17.7 µM; with NCI/ADR-RES ovarian, more than 100 µM; in the experiment with SW-620 colon it was 3.31 µM; in the experiment on SNB-75 CNS, 33.9 µM; with HCT-15 colon, 6.18 µM; with OVCAR-8 ovarian, more than 100 µM. Also, the TGI with RXF 393 renal is 3.04 µM; with HS 578T breast, more than 100 µM; with U251 CNS, 3.6 µM.
Regarding `O=C(CCl)N1CCN(c2ccccn2)CC1`, the TGI was 57.7 µM in the experiment with NCI/ADR-RES ovarian; 51.6 µM with SW-620 colon; more than 10 µM in the experiment with SNB-75 CNS; more than 10 µM with HCT-15 colon; 60.8 µM in the experiment on OVCAR-8 ovarian; 41.6 µM with RXF 393 renal. For the same compound, the TGI with HS 578T breast is more than 100 µM; in the experiment on U251 CNS, 33.9 µM.
As for `CCN1C[C@@H](C)n2c(c(O)c3c(=O)n(Cc4ccc(F)c(Cl)c4)nc(C(=O)NC)c32)C1=O`, the GI50 in the experiment on SN12C renal is 3.08 µM; in the experiment on NCI/ADR-RES ovarian, 1.62 µM; in the experiment on SW-620 colon, 3.11 µM; with SNB-75 CNS, 2.28 µM; in the experiment on HCT-15 colon it was 2.57 µM; with OVCAR-8 ovarian, 3.34 µM. Moreover, the GI50 was 2.48 µM with HS 578T breast and 3.31 µM with NCI-H226 lung. For the same compound, the TGI in the experiment with SN12C renal is more than 100 µM; in the experiment on NCI/ADR-RES ovarian, 7.79 µM; in the experiment with SW-620 colon it was more than 100 µM; in the experiment on SNB-75 CNS, 7.12 µM; with HCT-15 colon, 8.28 µM; in the experiment with OVCAR-8 ovarian, more than 100 µM. For the same compound, the TGI in the experiment on HS 578T breast was 7.42 µM; with NCI-H226 lung, more than 100 µM.
Regarding `CN(C)CC1CCCC/C1=N\OC(=O)c1ccccc1` (stereo unspecified), the TGI with SN12C renal, with SW-620 colon, in the experiment with SNB-75 CNS, with HCT-15 colon, in the experiment on OVCAR-8 ovarian and in the experiment with RXF 393 renal was more than 100 µM each time. In addition, the concentration for total growth inhibition (TGI) with U251 CNS and in the experiment on NCI-H226 lung was more than 100 µM each time.
Take `CCN1CCCCCCCCCC(=N/O)/C(=N\O)C1`: the TGI in the experiment on SN12C renal, in the experiment with NCI/ADR-RES ovarian, in the experiment with SW-620 colon, with SNB-75 CNS, in the experiment on HCT-15 colon and in the experiment on OVCAR-8 ovarian was more than 100 µM throughout. In addition, the TGI with RXF 393 renal, in the experiment on U251 CNS and in the experiment on NCI-H226 lung was more than 100 µM each time.
For the compound `CC(=O)[CH-]C(=O)c1ccccc1.CC(=O)[CH-]C(=O)c1ccccc1.CC[C@H](CCC(C)[C@H]1CCC2[C@@H]3CC=C4C[C@@H]([O-])CC[C@]4(C)C3CC[C@@]21C)C(C)C.CC[C@H](CCC(C)[C@H]1CCC2[C@@H]3CC=C4C[C@@H]([O-])CC[C@]4(C)C3CC[C@@]21C)C(C)C.Cl.[Ti+4]` (stereo partly specified), the concentration for total growth inhibition (TGI) in the experiment on SN12C renal, in the experiment with SW-620 colon, with SNB-75 CNS, with HCT-15 colon, with OVCAR-8 ovarian and with RXF 393 renal was more than 25 µM throughout. For the same compound, the TGI in the experiment on U251 CNS and in the experiment with NCI-H226 lung was more than 25 µM throughout. Besides, the GI50 in the experiment on RXF 393 renal was more than 25 µM.
For the compound `CC[C@]1(O)CC2CN(CCc3c([nH]c4ccccc34)C(C(=O)OC)(c3cc4c(cc3OC)N(C=O)[C@H]3[C@@](O)(C(=O)OC)[C@H](OC(C)=O)[C@]5(CC)[C@@H]6C[C@@H]6CN6CC[C@]43[C@@H]65)C2)C1` (stereo partly specified), the GI50 with SN12C renal was less than 0.00325 µM; with NCI/ADR-RES ovarian, 0.179 µM; in the experiment with SW-620 colon, less than 0.00325 µM; with SNB-75 CNS, less than 0.00325 µM; with HCT-15 colon it was 0.0365 µM; with OVCAR-8 ovarian it was less than 0.00325 µM. Besides, the GI50 with HS 578T breast is less than 0.00325 µM; in the experiment on U251 CNS, less than 0.00325 µM; in the experiment on NCI-H226 lung, 0.245 µM. In addition, the concentration for total growth inhibition (TGI) is more than 32.5 µM with SN12C renal; 1.23 µM with NCI/ADR-RES ovarian; more than 32.5 µM in the experiment with SW-620 colon; 13.4 µM in the experiment with SNB-75 CNS; more than 32.5 µM in the experiment with HCT-15 colon; more than 32.5 µM in the experiment with HS 578T breast. Besides, the TGI in the experiment with U251 CNS was 0.146 µM; in the experiment with NCI-H226 lung it was more than 16.3 µM.
Consider `COC1(OC)CCC2(C)OC(c3ccccc3)C1O2` (stereo unspecified), for which the TGI in the experiment with SN12C renal, with SW-620 colon, in the experiment with SNB-75 CNS, in the experiment with HCT-15 colon, in the experiment on OVCAR-8 ovarian and with RXF 393 renal was more than 100 µM in each case. Further, the TGI in the experiment on U251 CNS and in the experiment with NCI-H226 lung was more than 100 µM in each case.
Consider `O=C(CCl)N1CCN(c2ccccc2)CC1`, for which the total growth inhibition concentration (TGI) in the experiment on NCI/ADR-RES ovarian was more than 100 µM; in the experiment with SW-620 colon it was 54.3 µM; in the experiment on SNB-75 CNS, 32.5 µM; with HCT-15 colon, 39.2 µM; in the experiment on OVCAR-8 ovarian it was 97.2 µM; in the experiment on RXF 393 renal it was 35.2 µM. Also, the results for the TGI in the experiment on HS 578T breast and with U251 CNS were 76.7 µM and 34.4 µM, respectively.
As for `CCN(CC)CCN1C(=O)c2c(c3c4cccc(Cl)c4n(C4OC(CO)C(OC)C(O)C4O)c3c3[nH]c4c(Cl)cccc4c23)C1=O` (stereo unspecified), the 50% growth inhibitory concentration (GI50) in the experiment on SW-620 colon, with OVCAR-8 ovarian, in the experiment on RXF 393 renal and with U251 CNS was less than 0.0001 µM in each case. The TGI in the experiment with HS 578T breast stood at 1.99 µM.
Regarding `O=c1[nH]c(-c2ccccc2)nc2cc([N+](=O)[O-])c(/C(Cl)=C/c3ccccc3)cc12`, the TGI is more than 100 µM in the experiment on SN12C renal; more than 100 µM in the experiment on SW-620 colon; 53.1 µM in the experiment on SNB-75 CNS; more than 100 µM with HCT-15 colon; 45.4 µM in the experiment with OVCAR-8 ovarian; 72.7 µM with RXF 393 renal. The TGI in the experiment with U251 CNS and in the experiment on NCI-H226 lung was more than 100 µM in each case.
Consider `O=C1CC[C@@H](S(=O)(=O)c2ccccc2)[C@H](/C=C/c2ccccc2)O1`, for which the TGI with SN12C renal, in the experiment with SW-620 colon, in the experiment on SNB-75 CNS, with HCT-15 colon, in the experiment with OVCAR-8 ovarian and with RXF 393 renal was more than 100 µM in each case. Besides, the TGI in the experiment with U251 CNS and in the experiment on NCI-H226 lung was more than 100 µM each time.
Turning to `N#C/C(=C\c1ccc(O)c(O)c1)C(=O)NCc1cccc(C(F)(F)F)c1`, the GI50 was 11.3 µM in the experiment on SN12C renal; 10.1 µM in the experiment with NCI/ADR-RES ovarian; 9.33 µM in the experiment with SW-620 colon; 13.6 µM in the experiment with SNB-75 CNS; 3.64 µM in the experiment on HCT-15 colon; 10.2 µM in the experiment with OVCAR-8 ovarian. Moreover, the GI50 is 17.3 µM in the experiment on RXF 393 renal, 12 µM with HS 578T breast and 6.22 µM with U251 CNS. Also, the TGI in the experiment on SN12C renal was 31.1 µM; in the experiment with NCI/ADR-RES ovarian it was 34.6 µM; in the experiment with SW-620 colon, 31.3 µM; in the experiment on SNB-75 CNS it was 59.2 µM; in the experiment on HCT-15 colon it was 46.3 µM; in the experiment with OVCAR-8 ovarian it was 62.2 µM. The figures for the TGI in the experiment with RXF 393 renal, with HS 578T breast and in the experiment with U251 CNS were 84.5 µM, 47.3 µM and 38.4 µM, respectively.
With `c1ccc(C2=Nc3ccccc3N3CNN=C23)cc1`, the GI50 in the experiment on SN12C renal is more than 100 µM; in the experiment with NCI/ADR-RES ovarian it was more than 100 µM; with SW-620 colon, more than 100 µM; in the experiment on SNB-75 CNS, 25.8 µM; with HCT-15 colon it was 90.6 µM; with OVCAR-8 ovarian it was more than 100 µM. Further, the values for the GI50 with HS 578T breast, in the experiment with U251 CNS and with NCI-H226 lung were 81.8 µM, more than 100 µM and more than 100 µM, respectively. Also, the TGI was more than 100 µM with SN12C renal; more than 100 µM in the experiment with NCI/ADR-RES ovarian; more than 100 µM in the experiment with SW-620 colon; 86.6 µM with SNB-75 CNS; more than 100 µM with HCT-15 colon; more than 100 µM in the experiment on OVCAR-8 ovarian. The TGI with HS 578T breast, in the experiment on U251 CNS and with NCI-H226 lung was more than 100 µM each time.
With `CC(=O)NNc1nc(C)c(C(=O)/C=C/c2ccc(N(C)C)cc2)s1`, the TGI with SN12C renal, with SW-620 colon, in the experiment with SNB-75 CNS, in the experiment with HCT-15 colon, in the experiment with OVCAR-8 ovarian and in the experiment with RXF 393 renal was more than 100 µM each time. The TGI with U251 CNS and in the experiment with NCI-H226 lung was more than 100 µM each time.
For `NC(=S)N/N=C/C(O[C@@H](/C=N/NC(N)=S)CO)n1cnc2c(N)ncnc21` (stereo partly specified), the TGI in the experiment with SN12C renal was more than 100 µM; in the experiment on SW-620 colon, more than 53.7 µM; in the experiment with SNB-75 CNS it was more than 100 µM; in the experiment with HCT-15 colon, more than 62 µM; with OVCAR-8 ovarian it was more than 100 µM; with RXF 393 renal, more than 100 µM. The TGI in the experiment with U251 CNS was more than 89.4 µM; in the experiment on NCI-H226 lung, more than 100 µM.
